Data reported in ChEMBL document CHEMBL1131812, “Novel conformationally restricted tetracyclic analogs of delta8-tetrahydrocannabinol” (Bioorg Med Chem Lett, 1999).

Assays:
Cannabinoid receptor 1 = Cannabinoid receptor 1 (Rattus norvegicus, UniProt P20272); experiment: Binding affinity towards cannabinoid receptor 1 in rat forebrain membranes.; assay type: cell membranes
Cannabinoid receptor 2 = Cannabinoid receptor 2 (Mus musculus, UniProt P47936); experiment: Binding affinity towards Cannabinoid receptor 2 in mouse spleen membranes; assay type: cell membranes
Sequence of Cannabinoid receptor 2 (P47936 whole entry): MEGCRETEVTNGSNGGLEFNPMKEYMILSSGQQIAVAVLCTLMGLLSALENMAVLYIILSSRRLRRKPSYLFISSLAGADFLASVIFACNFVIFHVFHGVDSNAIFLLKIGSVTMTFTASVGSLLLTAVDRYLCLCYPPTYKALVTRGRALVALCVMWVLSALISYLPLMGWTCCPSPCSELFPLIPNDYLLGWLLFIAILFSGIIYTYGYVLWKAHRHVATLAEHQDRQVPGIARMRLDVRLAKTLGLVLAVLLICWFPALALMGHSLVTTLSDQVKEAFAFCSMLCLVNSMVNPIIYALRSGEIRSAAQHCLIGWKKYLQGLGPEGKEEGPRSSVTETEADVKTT

Sequence of Cannabinoid receptor 1 (P20272 whole entry): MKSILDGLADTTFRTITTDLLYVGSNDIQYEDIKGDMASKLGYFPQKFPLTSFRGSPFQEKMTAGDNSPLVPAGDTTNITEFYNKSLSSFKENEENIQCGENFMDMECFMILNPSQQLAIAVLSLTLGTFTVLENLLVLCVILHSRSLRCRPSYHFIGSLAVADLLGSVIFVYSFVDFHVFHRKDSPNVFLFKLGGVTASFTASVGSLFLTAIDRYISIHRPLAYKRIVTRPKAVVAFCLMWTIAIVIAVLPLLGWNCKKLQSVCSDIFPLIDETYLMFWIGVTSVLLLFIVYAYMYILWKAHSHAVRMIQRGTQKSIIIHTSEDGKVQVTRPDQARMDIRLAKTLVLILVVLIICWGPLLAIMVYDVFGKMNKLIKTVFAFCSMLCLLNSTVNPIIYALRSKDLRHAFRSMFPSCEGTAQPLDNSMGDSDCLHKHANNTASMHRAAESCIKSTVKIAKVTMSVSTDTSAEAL

## CCCCCCC1CCCc2c1cc1c(c2O)[C@@H]2CC(C)=CC[C@H]2C(C)(C)O1 (stereo partly drawn)
Cannabinoid receptor 1
  Ki: 22.3 nM
Cannabinoid receptor 2
  Ki: 58.6 nM

## CCCCCC1CCc2c(cc3c(c2O)[C@@H]2CC(C)=CC[C@H]2C(C)(C)O3)C1 (stereo partly drawn)
Cannabinoid receptor 1
  Ki: 402 nM
Cannabinoid receptor 2
  Ki: 162 nM

## CCCCCCC1CCCc2c1cc(O)c1c2OC(C)(C)[C@@H]2CC=C(C)C[C@@H]12 (stereo partly drawn)
Cannabinoid receptor 1
  Ki: 542 nM
Cannabinoid receptor 2
  Ki: 456 nM

## CCCCCCCc1cc(O)c2c(c1)OC(C)(C)[C@@H]1CC=C(C)C[C@@H]21
Cannabinoid receptor 1
  Ki: 0.43 nM
Cannabinoid receptor 2
  Ki: 0.39 nM
